Test results taken from ChEMBL document CHEMBL3137667, “[Drug-induced liver injury; fourteenth updated edition of the bibliographic database of liver injuries and related drugs]” (Gastroenterol Clin Biol, 2004).

How the values were obtained:
[1] = human
[2] = human, serum, 4383 h
[3] = human; remark: listed apart in the source
[4] = human; remark: listed apart in the source
[5] = human; remark: listed apart in the source
[6] = human; remark: listed apart in the source
[7] = human; remark: listed apart in the source
[8] = human; remark: listed apart in the source
[9] = human; remark: listed apart in the source
[10] = human; remark: listed apart in the source
[11] = Highest frequency of moderate liver toxicity observed during clinical trials, expressed as a percentage. [column '% BIOL' in source]; settings: human
[12] = human, serum
[13] = Highest frequency of acute liver toxicity observed during clinical trials, expressed as a percentage. [column '% AIGUE' in source]; settings: human
[14] = human, serum; remark: listed apart in the source
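For Hepatotoxicity (association with vascular disease) in this document: count of indexed literature references reporting vascular liver injury in humans, e.g. peliosis hepatitis, hepatic veno-occlusive disease or Budd-Chiari syndrome.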
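For Hepatotoxicity (benign tumour) in this document: value is a count of indexed literature references citing a benign tumour confirmed by histopathology.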
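For Hepatotoxicity (choleostasis) in this document: human cholestatic liver injury, shown by histopathology or by peak ALT or AST elevation over alkaline phosphatase ratio below 2, value counts indexed literature reports.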
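For Hepatotoxicity (chronic liver disease) in this document: chronic liver injury confirmed by histopathology or persistently raised serum aminotransferase activity beyond 6 months, value given as the count of indexed literature references.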
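For Hepatotoxicity (cirrhosis) in this document: value is a count of indexed literature references reporting cirrhosis confirmed by histopathology.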
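For Hepatotoxicity (cytolytic) in this document: human cytolytic liver injury, shown by histopathology or by a ratio above 5 of peak ALT or AST elevation to alkaline phosphatase elevation, value counts indexed references.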
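For Hepatotoxicity (granulomatous hepatitis) in this document: value is a count of indexed literature references reporting granulomatous liver disease confirmed by histopathology.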
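For Hepatotoxicity (malignant tumour) in this document: malignant tumour confirmed by histopathology, value gives the count of indexed literature references reporting it.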
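For Hepatotoxicity (severe hepatitis) in this document: human clinical data: severe hepatitis, meaning potentially life-threatening liver failure or clinically observed cases, the value counts how many indexed literature references report it.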
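For Hepatotoxicity (steatosis) in this document: steatosis confirmed by histopathology, value is the count of indexed references.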

## NC(CO)(CO)CO [TROMETHAMINE]
[1]; Liver
  Hepatotoxicity (granulomatous hepatitis): 0
[2]
  Hepatotoxicity (chronic liver disease): 0
[3]; Liver
  Hepatotoxicity (cytolytic): 2
[4]; Liver
  Hepatotoxicity (choleostasis): 0
[5]
  Hepatotoxicity (steatosis): 0
[6]
  Hepatotoxicity (malignant tumour): 0
[7]
  Hepatotoxicity (benign tumour): 0
[8]
  Hepatotoxicity (association with vascular disease): 0
[9]; Liver
  Hepatotoxicity (severe hepatitis): 2
[10]
  Hepatotoxicity (cirrhosis): 0
[11]; Liver
  Hepatotoxicity (moderate): 0%
[12]
  Hepatotoxicity (moderate): 0
[13]; Liver
  Hepatotoxicity (acute): 0%
[14]
  Hepatotoxicity (acute): 2

## CCCCC(C)(O)C/C=C/[C@H]1[C@H](O)CC(=O)[C@@H]1CCCCCCC(=O)OC (some centres undefined) [MISOPROSTOL]
[1]
  Hepatotoxicity (granulomatous hepatitis): 0
[2]
  Hepatotoxicity (chronic liver disease): 0
[3]
  Hepatotoxicity (cytolytic): 0
[4]
  Hepatotoxicity (choleostasis): 0
[5]
  Hepatotoxicity (steatosis): 0
[6]
  Hepatotoxicity (malignant tumour): 0
[7]
  Hepatotoxicity (benign tumour): 0
[8]
  Hepatotoxicity (association with vascular disease): 0
[9]
  Hepatotoxicity (severe hepatitis): 0
[10]
  Hepatotoxicity (cirrhosis): 0
[11]
  Hepatotoxicity (moderate): 16.7%
[12]
  Hepatotoxicity (moderate): 6
[13]
  Hepatotoxicity (acute): 0%
[14]
  Hepatotoxicity (acute): 0

## CN(C)CCc1c[nH]c2ccc(C[C@H]3COC(=O)N3)cc12 [ZOLMITRIPTAN]
[1]
  Hepatotoxicity (granulomatous hepatitis): 0
[2]
  Hepatotoxicity (chronic liver disease): 0
[3]
  Hepatotoxicity (cytolytic): 0
[4]
  Hepatotoxicity (choleostasis): 0
[5]
  Hepatotoxicity (steatosis): 0
[6]
  Hepatotoxicity (malignant tumour): 0
[7]
  Hepatotoxicity (benign tumour): 0
[8]
  Hepatotoxicity (association with vascular disease): 0
[9]
  Hepatotoxicity (severe hepatitis): 0
[10]
  Hepatotoxicity (cirrhosis): 0
[11]
  Hepatotoxicity (moderate): 0%
[12]
  Hepatotoxicity (moderate): 1
[13]
  Hepatotoxicity (acute): 0%
[14]
  Hepatotoxicity (acute): 0

## NS(=O)(=O)c1cc2c(cc1C(F)(F)F)NC(Cc1ccccc1)NS2(=O)=O (centres undefined) [BENDROFLUMETHIAZIDE]
[1]
  Hepatotoxicity (granulomatous hepatitis): 0
[2]
  Hepatotoxicity (chronic liver disease): 0
[3]
  Hepatotoxicity (cytolytic): 0
[4]
  Hepatotoxicity (choleostasis): 0
[5]
  Hepatotoxicity (steatosis): 0
[6]
  Hepatotoxicity (malignant tumour): 0
[7]
  Hepatotoxicity (benign tumour): 0
[8]
  Hepatotoxicity (association with vascular disease): 0
[9]
  Hepatotoxicity (severe hepatitis): 0
[10]
  Hepatotoxicity (cirrhosis): 0
[11]
  Hepatotoxicity (moderate): 0%
[12]
  Hepatotoxicity (moderate): 0
[13]
  Hepatotoxicity (acute): 0%
[14]
  Hepatotoxicity (acute): 1

## EPOETIN ALFA
[1]
  Hepatotoxicity (granulomatous hepatitis): 0
[2]
  Hepatotoxicity (chronic liver disease): 0
[3]
  Hepatotoxicity (cytolytic): 0
[4]
  Hepatotoxicity (choleostasis): 0
[5]
  Hepatotoxicity (steatosis): 0
[6]
  Hepatotoxicity (malignant tumour): 0
[7]
  Hepatotoxicity (benign tumour): 0
[8]
  Hepatotoxicity (association with vascular disease): 0
[9]
  Hepatotoxicity (severe hepatitis): 0
[10]
  Hepatotoxicity (cirrhosis): 0
[11]
  Hepatotoxicity (moderate): 20%
[12]
  Hepatotoxicity (moderate): 4
[13]
  Hepatotoxicity (acute): 0%
[14]
  Hepatotoxicity (acute): 0

## CCCCC(C)(O)C/C=C/[C@H]1[C@H](O)CC(=O)[C@@H]1CCCCCCCO (some centres undefined) [RIOPROSTIL]
[1]
  Hepatotoxicity (granulomatous hepatitis): 0
[2]
  Hepatotoxicity (chronic liver disease): 0
[3]
  Hepatotoxicity (cytolytic): 0
[4]
  Hepatotoxicity (choleostasis): 0
[5]
  Hepatotoxicity (steatosis): 0
[6]
  Hepatotoxicity (malignant tumour): 0
[7]
  Hepatotoxicity (benign tumour): 0
[8]
  Hepatotoxicity (association with vascular disease): 0
[9]
  Hepatotoxicity (severe hepatitis): 0
[10]
  Hepatotoxicity (cirrhosis): 0
[11]
  Hepatotoxicity (moderate): 10%
[12]
  Hepatotoxicity (moderate): 1
[13]
  Hepatotoxicity (acute): 0%
[14]
  Hepatotoxicity (acute): 0

## CCCC(=O)O[C@H]1[C@H](C)O[C@@H](O[C@H]2[C@H](N(C)C)[C@@H](O)[C@H](O[C@H]3[C@@H](CC=O)C[C@@H](C)[C@@H](O)/C=C/C=C/C[C@@H](C)OC(=O)C[C@@H](O)[C@@H]3OC)O[C@@H]2C)C[C@@]1(C)OC(=O)CC [ROKITAMYCIN]
[1]
  Hepatotoxicity (granulomatous hepatitis): 0
[2]
  Hepatotoxicity (chronic liver disease): 0
[3]
  Hepatotoxicity (cytolytic): 0
[4]
  Hepatotoxicity (choleostasis): 0
[5]
  Hepatotoxicity (steatosis): 0
[6]
  Hepatotoxicity (malignant tumour): 0
[7]
  Hepatotoxicity (benign tumour): 0
[8]
  Hepatotoxicity (association with vascular disease): 0
[9]
  Hepatotoxicity (severe hepatitis): 0
[10]
  Hepatotoxicity (cirrhosis): 0
[11]
  Hepatotoxicity (moderate): 5%
[12]
  Hepatotoxicity (moderate): 4
[13]
  Hepatotoxicity (acute): 0%
[14]
  Hepatotoxicity (acute): 0

## C[C@@H]1CN(c2c(F)c(N)c3c(=O)c(C(=O)O)cn(C4CC4)c3c2F)C[C@H](C)N1 [SPARFLOXACIN]
[1]
  Hepatotoxicity (granulomatous hepatitis): 0
[2]
  Hepatotoxicity (chronic liver disease): 0
[3]
  Hepatotoxicity (cytolytic): 0
[4]
  Hepatotoxicity (choleostasis): 0
[5]
  Hepatotoxicity (steatosis): 0
[6]
  Hepatotoxicity (malignant tumour): 0
[7]
  Hepatotoxicity (benign tumour): 0
[8]
  Hepatotoxicity (association with vascular disease): 0
[9]
  Hepatotoxicity (severe hepatitis): 0
[10]
  Hepatotoxicity (cirrhosis): 0
[11]
  Hepatotoxicity (moderate): 20%
[12]
  Hepatotoxicity (moderate): 29
[13]
  Hepatotoxicity (acute): 0%
[14]
  Hepatotoxicity (acute): 0

## CCN1CCC[C@H]1CNC(=O)c1c(OC)ccc(Br)c1OC [REMOXIPRIDE]
[1]
  Hepatotoxicity (granulomatous hepatitis): 0
[2]
  Hepatotoxicity (chronic liver disease): 0
[3]
  Hepatotoxicity (cytolytic): 0
[4]
  Hepatotoxicity (choleostasis): 0
[5]
  Hepatotoxicity (steatosis): 0
[6]
  Hepatotoxicity (malignant tumour): 0
[7]
  Hepatotoxicity (benign tumour): 0
[8]
  Hepatotoxicity (association with vascular disease): 0
[9]
  Hepatotoxicity (severe hepatitis): 0
[10]
  Hepatotoxicity (cirrhosis): 0
[11]
  Hepatotoxicity (moderate): 6.4%
[12]
  Hepatotoxicity (moderate): 7
[13]
  Hepatotoxicity (acute): 0%
[14]
  Hepatotoxicity (acute): 0

## CC(=N)N1CC[C@H](SC2=C(C(=O)O)N3C(=O)[C@H]([C@@H](C)O)[C@H]3C2)C1.O=C(O)CCNC(=O)c1ccccc1
[1]
  Hepatotoxicity (granulomatous hepatitis): 0
[2]
  Hepatotoxicity (chronic liver disease): 0
[3]
  Hepatotoxicity (cytolytic): 0
[4]
  Hepatotoxicity (choleostasis): 1
[5]
  Hepatotoxicity (steatosis): 0
[6]
  Hepatotoxicity (malignant tumour): 0
[7]
  Hepatotoxicity (benign tumour): 0
[8]
  Hepatotoxicity (association with vascular disease): 0
[9]
  Hepatotoxicity (severe hepatitis): 0
[10]
  Hepatotoxicity (cirrhosis): 0
[11]
  Hepatotoxicity (moderate): 38.5%
[12]
  Hepatotoxicity (moderate): 60
[13]
  Hepatotoxicity (acute): 0%
[14]
  Hepatotoxicity (acute): 1

## CC(=O)OCC(=O)[C@@]1(O)CC[C@H]2[C@@H]3CCC4=CC(=O)C=C[C@]4(C)[C@@]3(F)[C@@H](O)C[C@@]21C [ISOFLUPREDONE ACETATE]
[1]
  Hepatotoxicity (granulomatous hepatitis): 0
[2]
  Hepatotoxicity (chronic liver disease): 0
[3]
  Hepatotoxicity (cytolytic): 0
[4]
  Hepatotoxicity (choleostasis): 0
[5]
  Hepatotoxicity (steatosis): 0
[6]
  Hepatotoxicity (malignant tumour): 0
[7]
  Hepatotoxicity (benign tumour): 0
[8]
  Hepatotoxicity (association with vascular disease): 0
[9]
  Hepatotoxicity (severe hepatitis): 0
[10]
  Hepatotoxicity (cirrhosis): 0
[11]
  Hepatotoxicity (moderate): 0%
[12]
  Hepatotoxicity (moderate): 2
[13]
  Hepatotoxicity (acute): 0%
[14]
  Hepatotoxicity (acute): 0
